Where two headings read alike, the source gives them in different places.
Experiments:
SU-DHL-6 cells = test: SU-DHL-6 cell proliferation test; assay type: cell-based, human; conditions: incubated for 14 days
Procedure: SU-DHL-6 cells are human B-cell lymphoma cell lines purchased from ATCC and cultured under the following conditions: RPMI-1640+10% FBS+1% double antibody in a 37° C., 5% CO2 incubator. The cells were plated in a 12-well plate, with a cell concentration of 1×10^5 cells/mL. After the cells were plated, the compounds at different concentrations were added and cultured in a 37° C., 5% CO2 incubator. The cells were counted every 3-4 days (Countstar automated cell counter), centrifuged to remove the supernatant, re-diluted to 1×10^5 cells/mL and plated, and then the compounds at different concentrations were further added. After the mixture was incubated for 14 days and the cells were counted, the test was terminated, and the IC50 values were calculated by using the Origen9.2 software.

EZH2 = EZH2 (Homo sapiens (Human), UniProt Q15910); test: Test method for EZH2 enzyme activity; assay type: biochemical; conditions: H3K27(21-44) and [3H]-SAM
In short: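 EZH2 (3 nM final) preincubated 15 min with compound in Tris-HCl pH 9.0 buffer, then H3K27(21-44) peptide and [3H]-SAM added (mixture at 200 nM and 100 nM) for 60 min at room temperature. Reaction quenched with cold SAM; flashplate scintillation read, inhibition normalized to controls and IC50 fitted.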

[1] = Pharmacokinetic experiment in mice (intravenous 5 mg/kg or intragastric 30 mg/kg); assay type: in vivo; conditions: for AUC: read-out: AUC
Procedure: The administration was performed according to table 5.
The concentrations of the compounds in EDTA-K2 anticoagulant plasma were determined by the LC-MS/MS method. The linear range of the standard curve of the compounds is 2-2000 ng/mL. After subjected to precipitating proteins with acetonitrile, the samples were analyzed by LC-MS/MS. The standard curve was subjected to a regression calculation using the weighted least square method (W=1/X^2), and quantified by calculating the ratio of test compound peak area to internal standard peak area.
• (1) except to the blank sample, 400 μL of internal standard working solution (Verapamil internal standard concentration in precipitant acetonitrile is 10.0 ng/mL) was added to a 1.5 mL centrifuge tube containing 30 μL of standard curve samples and quality control samples; • 200 μL of internal standard working solution (Verapamil internal standard concentration in precipitant acetonitrile is 10.0 ng/mL) was added to a 1.5 mL centrifuge tube containing 15 μL of unknown samples; • and 400 μL of acetonitrile was added to the blank sample; • (2) the mixture was mixed evenly for about 1 min in a vortex mixer; • (3) centrifugation was carried out at 10000 rpm at 4C for 10 mi; • (4) 175 μL of the supernatant was transferred to a new 96-well polypropylene plate, and then the plate was sealed and placed in a 10° C. sample tray for injection.

[2] = ICR mice, PO 30 mg/kg, listed as Compound 53, Isomer 1
[3] = male, ICR, mouse, plasma, iv, 5 mg/kg, IV 5 mg/kg

Chain of EZH2 (Q15910 other isoform, or with tags, fused parts or gaps isoform Q15910-2): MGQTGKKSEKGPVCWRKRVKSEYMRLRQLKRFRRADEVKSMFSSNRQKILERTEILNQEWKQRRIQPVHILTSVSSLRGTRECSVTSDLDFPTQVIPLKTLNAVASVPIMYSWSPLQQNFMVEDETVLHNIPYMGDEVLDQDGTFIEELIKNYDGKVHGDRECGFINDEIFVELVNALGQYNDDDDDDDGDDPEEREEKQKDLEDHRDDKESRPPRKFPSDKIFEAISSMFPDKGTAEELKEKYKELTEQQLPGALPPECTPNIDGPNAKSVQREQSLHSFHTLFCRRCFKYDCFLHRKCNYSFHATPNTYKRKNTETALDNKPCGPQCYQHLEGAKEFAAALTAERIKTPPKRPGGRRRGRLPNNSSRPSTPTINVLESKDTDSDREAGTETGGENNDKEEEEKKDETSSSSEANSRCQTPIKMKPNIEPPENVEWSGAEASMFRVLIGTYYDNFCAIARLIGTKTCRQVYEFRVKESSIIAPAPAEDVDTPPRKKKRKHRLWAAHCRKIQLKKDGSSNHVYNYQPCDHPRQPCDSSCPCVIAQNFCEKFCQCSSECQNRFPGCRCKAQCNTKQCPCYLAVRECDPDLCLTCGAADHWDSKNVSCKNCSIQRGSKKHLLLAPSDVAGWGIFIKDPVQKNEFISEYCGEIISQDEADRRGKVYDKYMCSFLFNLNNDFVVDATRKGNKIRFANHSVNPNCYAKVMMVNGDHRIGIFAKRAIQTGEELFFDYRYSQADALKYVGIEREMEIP
Chain of EZH2 (O75530 2-441 partner): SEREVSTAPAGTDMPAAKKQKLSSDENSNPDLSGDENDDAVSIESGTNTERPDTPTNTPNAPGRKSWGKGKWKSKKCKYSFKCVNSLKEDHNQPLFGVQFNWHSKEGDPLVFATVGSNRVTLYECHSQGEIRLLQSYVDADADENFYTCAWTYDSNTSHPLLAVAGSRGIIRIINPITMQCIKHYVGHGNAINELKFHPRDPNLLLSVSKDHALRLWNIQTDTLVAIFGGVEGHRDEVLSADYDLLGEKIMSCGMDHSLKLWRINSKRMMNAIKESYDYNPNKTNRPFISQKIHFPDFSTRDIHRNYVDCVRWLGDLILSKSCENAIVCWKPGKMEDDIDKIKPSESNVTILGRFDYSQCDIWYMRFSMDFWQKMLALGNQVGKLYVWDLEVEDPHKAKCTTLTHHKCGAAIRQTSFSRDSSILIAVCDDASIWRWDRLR
Chain of EZH2 (Q15022 2-739 partner): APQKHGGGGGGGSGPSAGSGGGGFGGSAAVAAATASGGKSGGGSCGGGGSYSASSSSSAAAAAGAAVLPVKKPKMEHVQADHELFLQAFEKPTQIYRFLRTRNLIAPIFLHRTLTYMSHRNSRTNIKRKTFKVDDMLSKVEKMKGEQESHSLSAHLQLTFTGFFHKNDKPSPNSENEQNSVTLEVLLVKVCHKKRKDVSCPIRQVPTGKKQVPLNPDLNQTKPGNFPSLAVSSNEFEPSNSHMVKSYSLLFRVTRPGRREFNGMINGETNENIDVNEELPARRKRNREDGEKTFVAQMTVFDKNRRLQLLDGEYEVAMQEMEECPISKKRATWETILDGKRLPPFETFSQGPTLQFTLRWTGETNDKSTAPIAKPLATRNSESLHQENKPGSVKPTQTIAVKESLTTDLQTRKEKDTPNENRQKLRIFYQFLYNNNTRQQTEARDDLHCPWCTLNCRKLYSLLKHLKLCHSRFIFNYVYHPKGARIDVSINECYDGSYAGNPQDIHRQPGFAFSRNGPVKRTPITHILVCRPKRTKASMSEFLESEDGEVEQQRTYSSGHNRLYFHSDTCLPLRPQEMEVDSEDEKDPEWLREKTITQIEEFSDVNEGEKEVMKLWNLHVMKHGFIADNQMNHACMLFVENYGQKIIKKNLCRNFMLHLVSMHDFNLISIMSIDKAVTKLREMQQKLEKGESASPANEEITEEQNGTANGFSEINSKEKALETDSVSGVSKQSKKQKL
Chain of EZH2 (Q09028 2-425 partner): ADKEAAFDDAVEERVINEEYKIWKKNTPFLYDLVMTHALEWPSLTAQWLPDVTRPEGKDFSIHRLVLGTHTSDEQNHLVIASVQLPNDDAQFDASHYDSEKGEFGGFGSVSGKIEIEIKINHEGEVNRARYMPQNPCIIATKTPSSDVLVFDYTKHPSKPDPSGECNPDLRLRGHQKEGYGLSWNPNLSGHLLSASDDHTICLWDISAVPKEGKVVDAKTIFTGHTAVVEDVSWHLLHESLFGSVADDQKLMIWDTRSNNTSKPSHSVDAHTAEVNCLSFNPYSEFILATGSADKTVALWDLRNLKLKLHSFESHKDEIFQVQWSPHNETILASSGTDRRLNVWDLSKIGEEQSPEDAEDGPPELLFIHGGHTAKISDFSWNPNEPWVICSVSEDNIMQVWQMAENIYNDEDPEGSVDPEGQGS
Chain of EZH2 (Q6ZN18 whole entry partner): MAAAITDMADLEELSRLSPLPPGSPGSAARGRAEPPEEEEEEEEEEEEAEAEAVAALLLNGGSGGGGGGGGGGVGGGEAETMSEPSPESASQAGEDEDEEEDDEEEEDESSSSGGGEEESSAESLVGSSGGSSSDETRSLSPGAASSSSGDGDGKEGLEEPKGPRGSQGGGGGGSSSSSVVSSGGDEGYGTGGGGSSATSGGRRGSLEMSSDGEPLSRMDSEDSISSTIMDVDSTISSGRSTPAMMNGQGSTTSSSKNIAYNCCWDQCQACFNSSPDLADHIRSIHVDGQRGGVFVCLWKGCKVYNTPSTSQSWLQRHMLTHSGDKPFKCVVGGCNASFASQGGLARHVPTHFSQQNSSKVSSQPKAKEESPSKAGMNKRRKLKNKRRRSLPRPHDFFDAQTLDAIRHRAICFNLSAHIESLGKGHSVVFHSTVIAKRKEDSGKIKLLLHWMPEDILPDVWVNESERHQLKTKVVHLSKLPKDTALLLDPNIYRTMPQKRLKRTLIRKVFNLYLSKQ

| Structure (SMILES) | IC50 (SU-DHL-6 cells; Homo sapiens, SU-DHL-6, 336 h) [nM] | IC50 (EZH2) [nM] | IC50 (SU-DHL-6 cells) [nM] | other results |
| --- | --- | --- | --- | --- |
| CNC(=O)N1CC2CCC(C1)C2[C@]1(C)Oc2c(Cl)cc(C(=O)NCc3c(SC)cc(C)[nH]c3=O)c(C)c2O1 (mixture of isomers) [Compound 36, 8-(7-chloro-2,4-dimethyl-5-(((6-methyl-4-(methylthio)-2-oxo-1,2-dihydropyridin-3-yl)methyl)carbamoyl)benzo[d][1,3]dioxol-2-yl)-N-methyl-3-azabicyclo[3.2.1]octane-3-carboxamide] | 8.96 | 0.55 |  |  |
| CSc1cc(C)[nH]c(=O)c1CNC(=O)c1cc(Cl)c2c(c1C)OC(C)(C1CCC(N3CC(N(C)C)C3)CC1)O2 (single isomer, unassigned) [Compound 1, isomer 1, 7-chloro-2-(4-(3-(dimethylamino)azetidin-1-yl)cyclohexyl)-2,4-dimethyl-N-((6-methyl-4-(methylthio)-2-oxo-1,2-dihydropyridin-3-yl)methyl)benzo[d][1,3]dioxole-5-carboxamide] | 13.1 | 0.67 |  |  |
| CSc1cc(C)[nH]c(=O)c1CNC(=O)c1cc(Cl)c2c(c1C)OC(C)([C@H]1CC[C@@H](NC3CC(F)(F)C3)CC1)O2 (single isomer, unassigned) [Compound 4, isomer 1, 7-chloro-2-(4-((3,3-difluorocyclobutyl)amino)cyclohexyl)-2,4-dimethyl-N-((6-methyl-4-(methylthio)-2-oxo-1,2-dihydropyridin-3-yl)methyl)benzo[d][1,3]dioxole-5-carboxamide] | 10.2 | 0.46 |  |  |
| CSc1cc(C)[nH]c(=O)c1CNC(=O)c1cc(Cl)c2c(c1C)OC(C)([C@H]1CC[C@@H](NC3CC(F)(F)C3)CC1)O2 (single isomer, unassigned) [Compound 4, isomer 2, 7-chloro-2-(4-((3,3-difluorocyclobutyl)amino)cyclohexyl)-2,4-dimethyl-N-((6-methyl-4-(methylthio)-2-oxo-1,2-dihydropyridin-3-yl)methyl)benzo[d][1,3]dioxole-5-carboxamide] |  | 0.56 | 9.79 |  |
| CSc1cc(C)[nH]c(=O)c1CNC(=O)c1cc(Cl)c2c(c1C)OC(C)([C@H]1CC[C@@H](N[C@H]3C[C@H](F)C3)CC1)O2 (single isomer, unassigned) [Compound 34, isomer 2, 7-chloro-2-(4-((trans-3-fluorocyclobutyl)amino)cyclohexyl)-2,4-dimethyl-N-((6-methyl-4-(methylthio)-2-oxo-1,2-dihydropyridin-3-yl)methyl)benzo[d][1,3]dioxole-5-carboxamide] |  | 0.57 | 27.1 |  |
| CSc1cc(C)[nH]c(=O)c1CNC(=O)c1cc(Cl)c2c(c1C)OC(C)([C@H]1CC[C@@H](c3ccccn3)CC1)O2 (single isomer, unassigned) [Compound 39, isomer 2, 7-chloro-2,4-dimethyl-N-((6-methyl-4-(methylthio)-2-oxo-1,2-dihydropyridin-3-yl)methyl)-2-(4-(pyridin-2-yl)cyclohexyl)benzo[d][1,3]dioxole-5-carboxamide] |  | 0.58 | 63.2 |  |
| CSc1cc(C)[nH]c(=O)c1CNC(=O)c1cc(Cl)c2c(c1C)OC(C)([C@H]1CC[C@H](N[C@H]3C[C@@H](F)C3)CC1)O2 (single isomer, unassigned) [Compound 41, isomer 1, 7-chloro-2-(4-((cis-3-fluorocyclobutyl)amino)cyclohexyl)-2,4-dimethyl-N-((6-methyl-4-(methylthio)-2-oxo-1,2-dihydropyridin-3-yl)methyl)benzo[d][1,3]dioxole-5-carboxamide] | 35.3 | 0.52 |  |  |
| CSc1cc(C)[nH]c(=O)c1CNC(=O)c1cc(Cl)c2c(c1C)OC(C)([C@H]1CC[C@@H](N3CC(N4CCCC4)C3)CC1)O2 (single isomer, unassigned) [Compound 43, isomer 1, 7-chloro-2,4-dimethyl-N-((6-methyl-4-(methylthio)-2-oxo-1,2-dihydropyridin-3-yl)methyl)-2-(4-(3-(pyrrolidin-1-yl)azetidin-1-yl)cyclohexyl)benzo[d][1,3]dioxole-5-carboxamide] |  | 0.49 |  | IC50 (SU-DHL-6 cells; Homo sapiens, 336 h): 59.3 nM |
| CSc1cc(C)[nH]c(=O)c1CNC(=O)c1cc(Cl)c2c(c1C)OC(C)([C@H]1CC[C@@H](N3CC[Si](C)(C)CC3)CC1)O2 (single isomer, unassigned) [Compound 49, isomer 2, 7-chloro-2-(4-(4,4-dimethyl-1,4-azasilinan-1-yl)cyclohexyl)-2,4-dimethyl-N-((6-methyl-4-(methylthio)-2-oxo-1,2-dihydropyridin-3-yl)methyl)benzo[d][1,3]dioxole-5-carboxamide] | 38.9 | 0.32 |  |  |
| [2H]C([2H])(NC(=O)c1cc(Cl)c2c(c1C)OC(C)(C1CCC(NC3COC3)CC1)O2)c1c(SC)cc(C)[nH]c1=O (single isomer, unassigned) [Compound 59, isomer 1, 7-chloro-2,4-dimethyl-N-((6-methyl-4-(methylthio)-2-oxo-1,2-dihydropyridin-3-yl)methyl-d2)-2-(4-(oxetan-3-ylamino)cyclohexyl)benzo[d][1,3]dioxole-5-carboxamide] | 10 | 0.57 |  |  |

More lines, in order of falling IC50 (EZH2), values ahead:

| IC50 (SU-DHL-6 cells; Homo sapiens, SU-DHL-6, 336 h) [nM] | IC50 (EZH2) [nM] | IC50 (SU-DHL-6 cells) [nM] | Structure (SMILES) | other results |
| --- | --- | --- | --- | --- |
|  | 0.44 | 22 | CSc1cc(C)[nH]c(=O)c1CNC(=O)c1cc(Cl)c2c(c1C)OC(C)([C@H]1CC[C@H](N[C@H]3C[C@@H](F)C3)CC1)O2 (single isomer, unassigned) [Compound 41, isomer 2, 7-chloro-2-(4-((cis-3-fluorocyclobutyl)amino)cyclohexyl)-2,4-dimethyl-N-((6-methyl-4-(methylthio)-2-oxo-1,2-dihydropyridin-3-yl)methyl)benzo[d][1,3]dioxole-5-carboxamide] |  |
|  | 0.42 | 28.2 | CSc1cc(C)[nH]c(=O)c1CNC(=O)c1cc(Cl)c2c(c1C)OC(C)([C@H]1CC[C@@H](c3ccccn3)CC1)O2 (single isomer, unassigned) [Compound 39, isomer 1, 7-chloro-2,4-dimethyl-N-((6-methyl-4-(methylthio)-2-oxo-1,2-dihydropyridin-3-yl)methyl)-2-(4-(pyridin-2-yl)cyclohexyl)benzo[d][1,3]dioxole-5-carboxamide] |  |
|  | 0.34 | 7.12 | [2H]C([2H])(NC(=O)c1cc(Cl)c2c(c1C)OC(C)([C@H]1CC[C@@H](N3CC4COCC4C3)CC1)O2)c1c(SC)cc(C)[nH]c1=O (single isomer, unassigned) [Compound 60, isomer 2, 7-chloro-2,4-dimethyl-N-((6-methyl-4-(methylthio)-2-oxo-1,2-dihydropyridin-3-yl)methyl-d2)-2-(4-(tetrahydro-1H-furo[3,4-c]pyrrol-5(3H)-yl)cyclohexyl)benzo[d][1,3]dioxole-5-carboxamide] |  |
|  | 0.33 |  | [2H]C([2H])(NC(=O)c1cc(Cl)c2c(c1C)OC(C)(C1CCC(N[C@H]3C[C@H](F)C3)CC1)O2)c1c(SC)cc(C)[nH]c1=O (single isomer, unassigned) [Compound 53, isomer 1, 7-chloro-2-(4-((trans-3-fluorocyclobutyl)amino)cyclohexyl)-2,4-dimethyl-N-((6-methyl-4-(methylthio)-2-oxo-1,2-dihydropyridin-3-yl)methyl-d2)benzo[d][1,3]dioxole-5-carboxamide] | Cmax [1, 2]: 1025 ng/mL; T1/2 [1, 2]: 1.10 h; Tmax [1, 2]: 0.500 h; half-life [1, 3]: 1.21 h; AUC [1, 3]: 703 ng·h/mL; C0 ([1]; male, ICR, mouse, plasma, iv, 5 mg/kg, IV 5 mg/kg, read-out: C0): 2360 ng/mL; bioavailability ([1]; male, ICR, mouse, plasma, po, 30 mg/kg, PO 30 mg/kg vs IV 5 mg/kg): 47.9%; AUC ([1]; male, ICR, mouse, plasma, po, 30 mg/kg, PO 30 mg/kg): 2020 ng·h/mL |
|  | 0.18 | 58.6 | [2H]C([2H])(NC(=O)c1cc(Cl)c2c(c1C)OC(C)([C@H]1CC[C@@H](N3CC4COCC4C3)CC1)O2)c1c(SC)cc(C)[nH]c1=O (single isomer, unassigned) [Compound 60, isomer 1, 7-chloro-2,4-dimethyl-N-((6-methyl-4-(methylthio)-2-oxo-1,2-dihydropyridin-3-yl)methyl-d2)-2-(4-(tetrahydro-1H-furo[3,4-c]pyrrol-5(3H)-yl)cyclohexyl)benzo[d][1,3]dioxole-5-carboxamide] |  |

— US20230365541A1, “INHIBITOR OF ENHANCER OF ZESTE HOMOLOGUE 2, AND USE THEREOF” (HAISCO PHARMACEUTICALS PTE. LTD., priority 2020, published 2023)
